Results taken from PubChem BioAssay (NCI).
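Each compound was tested at five concentrations against cells in 96-well plates for 48 hours. TGI denotes the concentration required for complete inhibition of growth.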

Experiments:
Test in all cases: inhibition of tumour cell growth, NCI panel, 48 h
[1] = system: M14 melanoma
[2] = system: NCI-H226 lung
[3] = system: SN12C renal
[4] = system: HS 578T breast
[5] = system: MALME-3M melanoma
[6] = system: HCT-15 colon
[7] = system: SNB-75 CNS
[8] = system: MDA-N
[9] = system: 786-0 renal
[10] = system: SK-MEL-2 melanoma
[11] = system: CCRF-CEM leukemia

| SMILES | TGI [1] [µM] | TGI [2] [µM] | TGI [3] [µM] | TGI [4] [µM] | TGI [5] [µM] | TGI [6] [µM] | TGI [7] [µM] | TGI [8] [µM] | TGI [9] [µM] | TGI [10] [µM] | TGI [11] [µM] |
| --- | --- | --- | --- | --- | --- | --- | --- | --- | --- | --- | --- |
| c1ccc2c(-c3csc(-c4c[nH]c5ccccc45)n3)c[nH]c2c1 | > 100 | > 100 | > 100 | > 100 | > 100 | > 100 | > 79.1 | > 100 | > 100 | > 100 | – |
| BrCc1ccc(CBr)c2c1-c1c(CBr)ccc3ccc(CBr)c-2c13 | > 100 | > 100 | > 100 | > 100 | > 100 | > 100 | > 100 | > 100 | > 100 | > 100 | – |
| CN(C)CC(/C(Cc1ccccc1)=N\NC(=S)NN)c1ccccc1 (stereo unspecified) | > 100 | > 100 | > 100 | – | > 100 | > 100 | > 100 | – | > 100 | – | – |
| CCOP(=O)(OCC)C(Cc1ccc(Cl)cc1)NS(=O)(=O)c1ccc(C)cc1 (stereo unspecified) | > 100 | – | > 100 | > 100 | > 100 | > 100 | – | > 100 | > 100 | > 100 | > 100 |
| O=C(Nc1nc2ncn(CCO)c2c(=O)[nH]1)c1ccccc1 | > 100 | > 100 | > 100 | – | > 100 | > 100 | > 100 | – | > 100 | > 100 | > 100 |
| CC1CC(N2CCOCC2)=Nc2ccccc2N1Cc1ccccc1 (stereo unspecified) | > 100 | > 100 | > 100 | > 100 | 63.1 | > 100 | – | – | > 100 | > 100 | > 100 |
| CCC(=O)C(CCN1CCC(N2C(=O)C(CCC#N)c3ccccc32)CC1)(c1ccccc1)c1ccccc1 (stereo unspecified) | 22.2 | 32.6 | 34 | 26.5 | 24.8 | 26 | 31.7 | – | 24.7 | 29.7 | – |
| CCCCN(C)C(=O)C1=C(C)NC(C)=C(C(=O)N(C)CCCC)C1 | > 100 | > 100 | > 100 | > 100 | – | > 100 | > 100 | > 100 | > 100 | > 100 | > 100 |
| C=CCNC(=O)CN(CC(=O)O)C1CCCCC1N(CC(=O)O)CC(=O)O (stereo unspecified) | – | > 100 | > 100 | > 100 | > 100 | > 100 | > 100 | > 100 | > 100 | – | > 100 |
| C=C1C2CCC3(CCC4C5(C)CCCC4(C=[N+](CCO)C5)C3C2)C1O (stereo unspecified) | > 100 | – | > 100 | > 100 | > 100 | > 100 | > 100 | > 100 | > 100 | > 100 | > 100 |
| O=c1cc(CNC2CC3CCC2C3)[nH]c(=O)[nH]1 (stereo unspecified) | > 100 | – | > 100 | > 100 | > 100 | > 100 | > 100 | > 100 | > 100 | > 100 | > 100 |
| CC(=O)Nc1ccc(S(=O)(=O)NN(C)S(=O)(=O)c2ccc(C)cc2)cc1 | > 100 | – | > 100 | – | > 100 | – | – | – | > 100 | > 100 | > 100 |
| COc1cc(-c2cc(=O)c3ccccc3[nH]2)cc(OC)c1OC | > 75 | – | > 75 | – | > 75 | > 75 | > 75 | – | > 75 | – | > 75 |
| C=C(C)CCC1CC=[N+]([O-])OC1C(C)(C)C (stereo unspecified) | 63.5 | 48.9 | > 100 | > 100 | – | > 100 | > 100 | > 100 | > 100 | – | 50.5 |
| CC(=O)O[C@@H]1[C@H]2[C@@H](OC(=O)c3ccccc3)[C@@H](C)C[C@]2(O)[C@H](OC(C)=O)[C@@]2(C)[C@@H]3C[C@@](C)(OC(C)=O)C[C@@H](OC(C)=O)[C@@]3(OC(C)=O)C[C@@]12C | > 10 | > 10 | > 10 | > 10 | – | > 10 | > 10 | > 10 | > 10 | > 10 | > 10 |
| COc1cc(C(=O)O)c(-c2cc3c(cc2C=O)OCO3)c(OC)c1OC | > 10 | – | > 10 | > 10 | > 10 | > 10 | > 10 | > 10 | > 10 | – | > 10 |
| COCCOCOC(C)(C)[C@H](CCO)O[Si](c1ccccc1)(c1ccccc1)C(C)(C)C | 21.8 | – | 12.7 | – | 30.5 | 17.5 | 21.6 | – | – | – | – |
| Oc1cccnc1/C=N/OCc1ccccc1 | > 100 | > 100 | > 100 | – | > 100 | > 100 | > 100 | – | > 100 | > 100 | > 100 |
| O=C(O)C12CC3CC(CC(F)(C3)C1)C2 | > 100 | – | – | – | > 100 | – | > 100 | – | > 100 | > 100 | > 100 |
| O=C(O)CC12CC3CC(CC(O)(C3)C1)C2 | > 100 | > 100 | > 100 | 59.9 | 77.1 | > 100 | > 100 | > 100 | > 100 | > 100 | – |
| Cc1nc(N(C(C)C)C(C)C)c(C(C)C)o1 | > 100 | > 100 | > 100 | > 100 | > 100 | > 100 | > 100 | > 100 | > 100 | – | > 100 |
| O=c1ccc2ccccc2c2ccccc12 | 6.52 | 15.1 | 6.44 | – | 22.3 | 5.64 | 10.8 | – | 10.1 | 16.2 | 11.4 |
| c1cc(CN2CCNCCNCCNCC2)cc(CN2CCNCCNCCNCC2)c1 | > 100 | > 100 | > 100 | > 100 | > 100 | – | > 100 | > 100 | > 100 | > 100 | – |
